ChEMBL document CHEMBL5365447, “Pronucleotides of 2',3'-Dideoxy-2',3'-Didehydrothymidine as Potent Anti-HIV Compounds” (J Med Chem, 2023)
Active and inactive are the calls of the source. The rule behind the calls is not given here.

Experiments:
[1] = Prodrug conversion in pH 7.3 phosphate buffer assessed as ((2S,5R)-5-(5-methyl-2,4-dioxo-3,4-dihydropyrimidin-1(2H)-yl)-2,5-dihydrofuran-2-yl)methyl tri-hydrogen diphosphate formation by measuring half life in presence of pig liver esterase by HPLC analysis; format: ADME
[2] = Chemical stability of the compound in phosphate buffer assessed as half life at pH 7.3 by HPLC analysis; format: physicochemical
[3] = Cytotoxicity against human CEM cells assessed as reduction in cell viability incubated for 4 to 5 days by light microscopic analysis; format: toxicity, cell-based; conditions: CEM cells (CCRF-CEM), time 4-5 day
[4] = target: DNA polymerase beta (Homo sapiens) (UniProt P06746); assay: Substrate activity at human DNA polymerase beta measured after 4 hrs by electrophoresis based primer extension assay
[5] = Prodrug conversion in human CEM/0 cell extract assessed as metabolite formation by measuring half life by HPLC analysis; format: ADME; conditions: ccrf-cem
[6] = tested on: Human immunodeficiency virus 2; assay: Potency index, ratio of 3'-deoxy-2',3'-dehydrothymidine EC50 to compound EC50 for antiviral activity against HIV-2 ROD infected in thymidine kinase-deficient human CEM[…] cells; format: functional
[7] = target: T1, DNA polymerase subunit gamma-1 (Homo sapiens) (UniProt P54098); assay: Substrate activity at human DNA polymerase gamma measured after 4 hrs by electrophoresis based primer extension assay
T1 sequence (whole entry): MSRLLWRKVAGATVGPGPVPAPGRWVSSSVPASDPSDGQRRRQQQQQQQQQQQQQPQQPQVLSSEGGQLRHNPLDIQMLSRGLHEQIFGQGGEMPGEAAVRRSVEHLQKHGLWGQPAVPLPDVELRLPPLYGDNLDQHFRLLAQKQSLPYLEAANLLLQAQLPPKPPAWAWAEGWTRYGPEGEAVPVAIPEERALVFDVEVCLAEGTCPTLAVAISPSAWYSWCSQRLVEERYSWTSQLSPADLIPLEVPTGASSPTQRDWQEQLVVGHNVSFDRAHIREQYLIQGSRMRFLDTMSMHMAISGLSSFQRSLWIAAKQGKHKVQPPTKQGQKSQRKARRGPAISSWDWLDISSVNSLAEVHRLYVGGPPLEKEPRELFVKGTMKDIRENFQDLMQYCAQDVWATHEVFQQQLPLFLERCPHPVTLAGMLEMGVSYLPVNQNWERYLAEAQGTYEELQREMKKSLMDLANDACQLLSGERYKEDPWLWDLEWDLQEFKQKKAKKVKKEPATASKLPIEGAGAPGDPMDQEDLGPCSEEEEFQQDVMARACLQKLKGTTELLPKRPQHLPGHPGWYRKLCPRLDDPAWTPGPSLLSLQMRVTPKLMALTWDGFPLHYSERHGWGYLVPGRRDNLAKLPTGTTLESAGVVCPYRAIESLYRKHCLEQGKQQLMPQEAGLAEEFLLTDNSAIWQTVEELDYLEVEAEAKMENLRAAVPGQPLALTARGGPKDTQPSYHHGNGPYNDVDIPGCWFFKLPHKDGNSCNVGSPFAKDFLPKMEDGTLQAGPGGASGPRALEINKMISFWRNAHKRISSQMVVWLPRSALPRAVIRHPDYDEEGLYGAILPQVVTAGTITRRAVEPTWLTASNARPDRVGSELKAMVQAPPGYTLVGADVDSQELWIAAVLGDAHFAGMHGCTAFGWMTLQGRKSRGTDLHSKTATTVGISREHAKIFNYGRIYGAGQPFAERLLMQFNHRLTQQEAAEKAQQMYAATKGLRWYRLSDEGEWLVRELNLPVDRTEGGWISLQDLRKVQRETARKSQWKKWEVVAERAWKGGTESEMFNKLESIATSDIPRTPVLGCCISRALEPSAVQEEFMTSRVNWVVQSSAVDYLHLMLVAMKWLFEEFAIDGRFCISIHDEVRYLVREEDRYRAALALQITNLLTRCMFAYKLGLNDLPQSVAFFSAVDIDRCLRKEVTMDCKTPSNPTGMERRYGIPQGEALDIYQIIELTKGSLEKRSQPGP

[8] = tested on: Human immunodeficiency virus 2; assay: Antiviral activity against HIV-2 ROD infected in thymidine kinase-deficient human CEM cells assessed as inhibition of virus-induced cytopathic effect incubated for 4 to 5 days by light microscopic analysis; format: functional, organism-based; conditions: Human immunodeficiency virus 2, ROD, CCRF-CEM
[9] = tested on: Human immunodeficiency virus 2; assay: Potency index, ratio of 3'-deoxy-2',3'-dehydrothymidine EC50 to compound EC50 for antiviral activity against HIV-2 ROD infected in wild-type human CEM/0 cells; format: functional
[10] = Selectivity index, ratio of CC50 for human CEM cells to EC50 for HIV-2 ROD infected in thymidine kinase-deficient human CEM cells; format: toxicity; conditions: read-out: Ratio CC50/EC50
[11] = target: T2, DNA polymerase alpha catalytic subunit (Homo sapiens) (UniProt P09884); assay: Substrate activity at human DNA polymerase alpha measured after 4 hrs by electrophoresis based primer extension assay
T2 sequence (whole entry): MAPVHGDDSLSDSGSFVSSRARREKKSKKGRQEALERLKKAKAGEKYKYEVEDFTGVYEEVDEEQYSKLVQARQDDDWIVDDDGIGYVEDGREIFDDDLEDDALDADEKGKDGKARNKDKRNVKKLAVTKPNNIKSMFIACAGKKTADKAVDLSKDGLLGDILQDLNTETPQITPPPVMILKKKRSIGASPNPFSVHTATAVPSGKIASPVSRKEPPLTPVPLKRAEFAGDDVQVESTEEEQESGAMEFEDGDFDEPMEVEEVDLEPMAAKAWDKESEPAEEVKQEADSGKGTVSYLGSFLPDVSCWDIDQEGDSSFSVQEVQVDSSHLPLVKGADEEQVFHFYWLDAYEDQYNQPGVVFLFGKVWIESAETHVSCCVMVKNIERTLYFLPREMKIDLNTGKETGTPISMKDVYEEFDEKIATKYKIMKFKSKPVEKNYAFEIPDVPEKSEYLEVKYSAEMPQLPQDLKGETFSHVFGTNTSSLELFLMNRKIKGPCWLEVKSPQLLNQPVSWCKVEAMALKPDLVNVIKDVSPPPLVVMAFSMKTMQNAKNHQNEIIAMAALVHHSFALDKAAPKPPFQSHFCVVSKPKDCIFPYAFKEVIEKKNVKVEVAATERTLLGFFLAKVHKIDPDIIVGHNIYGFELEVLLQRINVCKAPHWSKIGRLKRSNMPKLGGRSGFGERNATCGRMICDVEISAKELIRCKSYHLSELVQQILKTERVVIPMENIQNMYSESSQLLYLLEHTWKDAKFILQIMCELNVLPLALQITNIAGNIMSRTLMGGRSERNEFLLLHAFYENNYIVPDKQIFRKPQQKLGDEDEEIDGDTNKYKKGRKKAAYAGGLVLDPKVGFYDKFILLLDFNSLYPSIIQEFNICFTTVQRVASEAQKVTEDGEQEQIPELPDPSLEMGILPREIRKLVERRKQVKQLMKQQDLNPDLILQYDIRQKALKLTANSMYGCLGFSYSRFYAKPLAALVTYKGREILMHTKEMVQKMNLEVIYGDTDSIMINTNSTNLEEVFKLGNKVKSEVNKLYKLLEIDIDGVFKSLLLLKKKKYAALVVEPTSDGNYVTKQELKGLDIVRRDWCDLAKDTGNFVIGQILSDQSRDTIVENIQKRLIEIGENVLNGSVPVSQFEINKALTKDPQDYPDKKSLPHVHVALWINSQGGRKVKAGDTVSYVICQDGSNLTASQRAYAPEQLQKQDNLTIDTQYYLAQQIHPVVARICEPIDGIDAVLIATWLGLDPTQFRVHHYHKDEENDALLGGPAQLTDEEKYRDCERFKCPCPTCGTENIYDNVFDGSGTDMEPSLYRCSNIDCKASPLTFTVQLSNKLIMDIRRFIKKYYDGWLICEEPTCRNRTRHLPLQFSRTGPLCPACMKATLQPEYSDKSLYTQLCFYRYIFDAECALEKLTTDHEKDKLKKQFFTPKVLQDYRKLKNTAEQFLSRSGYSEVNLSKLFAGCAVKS

[12] = tested on: Human immunodeficiency virus 1; assay: Antiviral activity against HIV-1 HE infected in wild-type human CEM/0 cells assessed as inhibition of virus-induced cytopathic effect incubated for 4 to 5 days by light microscopic analysis; format: functional, organism-based; conditions: Human immunodeficiency virus 1, HE, CCRF-CEM
[13] = tested on: Human immunodeficiency virus 1; assay: Potency index, ratio of 3'-deoxy-2',3'-dehydrothymidine EC50 to compound EC50 for antiviral activity against HIV-1 HE infected in wild-type human CEM/0 cells; format: functional
[14] = tested on: Human immunodeficiency virus 2; assay: Antiviral activity against HIV-2 ROD infected in wild-type human CEM/0 cells assessed as inhibition of virus-induced cytopathic effect incubated for 4 to 5 days by light microscopic analysis; format: functional, organism-based; conditions: Human immunodeficiency virus 2, ROD, CCRF-CEM
[15] = Retention time of the compound by HPLC analysis; format: physicochemical
[16] = tested on: Human immunodeficiency virus; assay: Substrate activity at HIV reverse transcriptase measured after 4 hrs by electrophoresis based primer extension assay
[17] = Prodrug conversion in pH 7.3 phosphate buffer assessed as metabolite formation by measuring half life in presence of pig liver esterase by HPLC analysis; format: ADME; conditions: isolated protein
[18] = Chemical stability of the compound in phosphate buffer saline assessed as half life at pH 7.3 by HPLC analysis; format: physicochemical; conditions: phosphate buffered saline

Row | SMILES | Drug metabolism [1] | half-life [2] [days] | CC50 [3] [nM] | Activity [4] | Drug metabolism [5] | Ratio EC50 [6] | Activity [7] | EC50 [8] [nM] | Ratio EC50 [9] | selectivity ratio [10] | Activity [11] | EC50 [12] [nM] | Ratio EC50 [13] | EC50 [14] [nM] | Retention_time [15] [min] | t1/2 [5] [days] | half-life [18] [days] | also measured
1 | CCCCCCCCCCCCCCCCCCP(=O)(OCCCCCCCCCCCC)OP(=O)(O)OP(=O)(O)OC[C@@H]1C=C[C@H](n2cc(C)c(=O)[nH]c2=O)O1.N.N (some centres undefined) | Metabolite_Notdetected | 34.6 | 50000 | inactive | Metabolite_Notdetected | 10000 | inactive | 350 | 4 | 143 | inactive | 130 | 4 | 210 | 18.9 | – | – | –
2 | CCCCCCCCCCCCCCCCCCOP(=O)(OCC(CC)CCCC)OP(=O)(O)OP(=O)(O)OC[C@@H]1C=C[C@H](n2cc(C)c(=O)[nH]c2=O)O1.N.N (some centres undefined) | Metabolite_Notdetected | > 83.3 | 34000 | inactive | Metabolite_Notdetected | 10000 | inactive | 5 | 4 | 6800 | inactive | 75 | 4 | 36 | 17.3 | – | – | Activity [16]: Active
3 | CCCCCCCCCCCCOP(=O)(OCc1ccc(OC(=O)CCCCCCCCCCC)cc1)OP(=O)(O)OC[C@@H]1C=C[C@H](n2cc(C)c(=O)[nH]c2=O)O1.N (some centres undefined) | – | – | 48400 | – | – | – | – | 48 | – | 1010 | – | 120 | – | 120 | 20.9 | 0.188 | 15.5 | t1/2 [17]: 0.0279 days
4 | CCCCCCCCCCCCP(=O)(OCc1ccc(OC(=O)CCCC)cc1)OP(=O)(O)OC[C@@H]1C=C[C@H](n2cc(C)c(=O)[nH]c2=O)O1.N (some centres undefined) | – | – | 66700 | – | Metabolite_Notdetected | – | – | 760 | – | 88 | – | 560 | – | 420 | 16.3 | – | 29.2 | Drug metabolism [17]: Metabolite_Notdetected
5 | CCCCCCCCCCCCCCCCCCP(=O)(OCC(CC)CCCC)OP(=O)(O)OP(=O)(O)OC[C@@H]1C=C[C@H](n2cc(C)c(=O)[nH]c2=O)O1.N.N (some centres undefined) | Metabolite_Notdetected | > 41.7 | 42000 | inactive | Metabolite_Notdetected | 10000 | inactive | 240 | 4 | 175 | inactive | 90 | 4 | 140 | 17.1 | – | – | –
6 | CCCCCCCCCCCCCCCCCCOP(=O)(OC)OP(=O)(O)OP(=O)(O)OC[C@@H]1C=C[C@H](n2cc(C)c(=O)[nH]c2=O)O1.N.N (some centres undefined) | – | 32.9 | 34000 | inactive | – | 10000 | inactive | 15 | 4 | 2270 | inactive | 77 | 4 | 25 | 15.6 | > 0.625 | – | t1/2 [1]: > 6.25 days; Activity [16]: Active
7 | CCCCCCCCCCCCOP(=O)(OCc1ccc(OC(=O)CCCC)cc1)OP(=O)(O)OC[C@@H]1C=C[C@H](n2cc(C)c(=O)[nH]c2=O)O1.N (some centres undefined) | – | – | > 100000 | – | – | – | – | 1390 | – | > 72 | – | 390 | – | 360 | 16.6 | 0.0458 | 11.9 | t1/2 [17]: < 0.00042 days
